Test results reported in patent publication US20220340908A1, “METHODS FOR DEPLETION OF DELETERIOUS MITOCHONDRIAL GENOMES” (University of Massachusetts, priority 2019, published 2022).
Residues, ends and D or L forms follow the SMILES beside them. *: point of attachment. Cbz = O=C(OCc1ccccc1)*

Experiments:
CoxI G6930A cells [1] = test: Respiration assay, oxygen consumption rate (Seahorse), CoxI G6930A cells; type: cell-based, human
Method: (§1) For mitochondrial respiration assays, oxygen consumption rate (OCR) was measured using a Seahorse Extracellular Flux Analyzer XFe96 (Seahorse Biosciences) as described (40). 14,000 cells were seeded per well and OCR was measured using the Cell MitoStress Kit (as described by the manufacture). 180 μl of XF-Media was added to each well and then the plates were subjected to analysis following sequential introduction of 1.5 μM oligomycin, 1.5 μM FCCP and 0.5 μM rotenone/antimycin as indicated. Data is normalized to total protein as determined by the BCA protein assay.

CoxI G6930A cybrid cells = test: Percentage of CoxI G6930A mtDNA by deep sequencing in cybrid cells; type: cell-based, human; details: for CoxI G6930A mtDNA percentage: 3 weeks, from 86%; for CoxI G6930A mtDNA heteroplasmic ratio: 18.5 weeks continuous, from ˜90%
Method: Library construction for deep sequencing was modified from our previous report (7). Following CDDO treatment, cells were harvested at different time points and genomic DNA extracted. Briefly, regions flanking the CoxI […] site were PCR amplified using locus-specific primers bearing tails complementary to the Truseq adapters as described previously (38). 50-100 ng input genomic DNA (mtDNA included) was PCR amplified with Phusion High Fidelity DNA Polymerase (New England Biolabs):(98° C., 15 s; 67° C. 25 s; 72° C. 18 s)×30 cycles. 1 μl of each PCR reaction was amplified with barcoded primers to reconstitute the TruSeq adaptors using the Phusion High Fidelity DNA Polymerase (New England Biolabs): (98° C., 15 s; 61° C., 25 s; 72° C., 18 s)×9 cycles. Equal amounts of the products were pooled and gel purified. The purified library was deep sequenced using a paired-end 150 bp Illumina MiSeq run.
MiSeq data analysis for editing at target sites or off-target sites was performed using a suite of Unix-based-software tools. First, the quality of the paired-end sequencing reads (R1 and R2 fastq files) was assessed using FastQC (bioinformatics.babraham.ac.uk/projects/fastqc/). Raw paired-end reads were combined using paired end read merger (PEAR) (39) to generate single merged high-quality full-length reads. Reads were then filtered by quality (using Filter FASTQC (38)) to remove those with a mean PHRED quality score under 30 and a minimum per base score under 24. Each group of reads was then aligned to a corresponding reference sequence using BWA (version 0.7.5) and SAMtools (version 0.1.19). To determine background SNP or sequencing errors, all reads from each negative control replicate were combined and aligned, as described above. Background SNP types and frequencies were then cataloged in a text output format at each base using bam-readcount (github.com/genome/bam-readcount). For each drug treatment group, the average background SNP frequencies (based on SNP type, position and frequency) of the triplicate negative control group were subtracted to obtain the accurate SNP frequencies.
(§2) The KSS cell line was a gift from Carlos Moraes (29, 30). The CoxI […] cell line was a gift from Giovanni Manfredi (28). Cells were cultured in DMEM (4 mM L-glutamine, 4.5 g/L glucose; Gibco, Thermo Fisher Scientific) plus 10% FBS with 1% pen-strep. Total cellular mtDNA was prepared as described (40). Cells were incubated continuously in the described concentration of CDDO for the indicated number of days. The cells were sub-cultured prior to confluence every 48 hours.

KSS ΔmtDNA cells = test: Cell viability (trypan blue), KSS cells; type: cell-based, human; details: 0.1 μM and 0.25 μM CDDO, 72 hours
Method: as §2
(§3) At the indicated time points, cells were stained with trypan blue (41) and quantified with an automated cell counter TC-20™ (Bio-Rad). The results are an average of three independent assays.

KSS cybrid cells = test: KSS ΔmtDNA quantification by qPCR in KSS heteroplasmic cybrid cells; type: cell-based, human; details: for KSS ΔmtDNA percentage: 4 weeks, from ˜50%
Method: For human patient fibroblast cell lines, wild-type and ΔKSS primers were used to detect wild-type mtDNA or ΔKSS mtDNA. Primers that amplify a sequence within the B2M ([…]) gene were used as an internal control for normalization. Absolute quantification was also performed to determine the percentage or ratio of KSS ΔmtDNA relative to total mtDNA (KSS ΔmtDNA and wild-type mtDNA) as previously described (11). Primers that specifically amplify wild-type or ΔmtDNA are listed in Table A. Standard curves for each qPCR primer set were generated using purified plasmids individually containing approximately 1 kb of the mtDNA fragments specific for each primer set. A Student's t-test was employed to determine the level of statistical significance.
as §2
Cells were grown on 6-well plates and siRNAs were transfected with Lipofectamine RNAiMAX (Thermo Fisher Scientific) following the manufacturer's instructions. Human LONP1 RNAi was used in knockdown experiment (Dharmacon L-003979-00-0005) (e.g., a pool comprising GGAAAUCGGCCUACAAGAU (SEQ ID NO:1), GCGCAUGUAUGACGUGACA (SEQ ID NO:2), CGAGAGUACUUCCGCUUCA (SEQ ID NO:3), and GAAGAGACCAAUAUUCCUA (SEQ ID NO:4)).
ATF5 shRNA knockdown lentiviral constructs were generated using psp-108 vector (Addgene), and viruses were produced by co-transfection along with plasmids pMD2.G (Addgene) and psPAX2 (Addgene) into HEK293T cells. All viral titers were predetermined, and same number of viral particles was used for experimental and control samples. KSS cells were infected with lentiviruses, selected with puromycin for 5-7 days, and re-plated for proliferation. ATFS knockdown targeting sequences are: shRNA-1, 5′-[…]-3′ (SEQ ID NO:5); shRNA-2, 5′-[…]-3′ (SEQ ID NO:6); shRNA-3, 5′-[…]-3′ (SEQ ID NO:7); see horizondiscovery.com/en/products/gene-modulation/knockdown-reagents/shrna/PIFs/TRC-Lentiviral-shRNA?nodeid=entrezgene-22809#specifications.

KSS heteroplasmic cells = test: Respiration assay, oxygen consumption rate (Seahorse), KSS cells; type: cell-based, human; details: 0.1 μM or 0.25 μM, 4 weeks
Method: as §1

CoxI G6930A cells [2] = test: Cell viability (trypan blue), CoxI G6930A cells; type: cell-based, human; details: 0.1 μM and 0.25 μM CDDO, 72 hours
Method: as §2, §3

[3] = 20 mg for 56 consecutive days; cited from earlier work
LONP1 protease = molecular target: T1, LONP1 protease (Homo sapiens, UniProt P36776); details: cited from earlier work
T1 sequence (P36776 68-959): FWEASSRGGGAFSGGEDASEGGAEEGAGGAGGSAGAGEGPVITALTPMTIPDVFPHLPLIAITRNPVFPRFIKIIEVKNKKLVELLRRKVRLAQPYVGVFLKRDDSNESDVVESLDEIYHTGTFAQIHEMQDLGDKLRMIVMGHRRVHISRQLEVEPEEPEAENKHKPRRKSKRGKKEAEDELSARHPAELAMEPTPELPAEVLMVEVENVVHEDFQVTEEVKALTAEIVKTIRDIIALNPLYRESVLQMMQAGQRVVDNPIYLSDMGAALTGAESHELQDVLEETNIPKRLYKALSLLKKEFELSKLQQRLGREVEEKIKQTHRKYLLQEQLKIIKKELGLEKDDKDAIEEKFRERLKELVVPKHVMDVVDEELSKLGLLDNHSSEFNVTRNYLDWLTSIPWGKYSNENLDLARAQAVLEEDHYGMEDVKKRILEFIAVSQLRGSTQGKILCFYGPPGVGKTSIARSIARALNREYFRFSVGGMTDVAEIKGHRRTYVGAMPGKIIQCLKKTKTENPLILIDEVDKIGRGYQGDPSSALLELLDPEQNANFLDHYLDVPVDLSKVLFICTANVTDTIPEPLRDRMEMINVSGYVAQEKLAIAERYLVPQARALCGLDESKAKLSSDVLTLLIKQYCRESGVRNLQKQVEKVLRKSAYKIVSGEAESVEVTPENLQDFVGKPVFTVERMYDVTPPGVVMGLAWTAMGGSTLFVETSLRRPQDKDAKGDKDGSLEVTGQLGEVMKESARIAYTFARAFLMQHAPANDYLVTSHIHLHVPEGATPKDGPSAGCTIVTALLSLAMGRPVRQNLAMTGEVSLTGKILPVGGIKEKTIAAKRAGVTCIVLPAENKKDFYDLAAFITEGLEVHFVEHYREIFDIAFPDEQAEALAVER

CC1(C)CC[C@]2(C(=O)O)CC[C@]3(C)[C@H](C(=O)C=C4[C@@]5(C)C=C(C#N)C(=O)C(C)(C)[C@@H]5CC[C@]43C)[C@@H]2C1 [CDDO, 2-cyano-3,12-dioxo-oleana-1,9(11)-dien-28-oic acid]
improvement of basal oxygen consumption (CoxI G6930A cells [1]; 0.1 μM, 3 weeks): ~2 fold | improvement of basal oxygen consumption (CoxI G6930A cells [1]; 18.5 weeks exposure): over 3 fold | maximal respiratory capacity (CoxI G6930A cells [1]; CDDO time course, 0.1 μM or 0.25 μM): increased | CoxI G6930A mtDNA percentage (CoxI G6930A cybrid cells; 0.1 μM): 68% | CoxI G6930A mtDNA heteroplasmic ratio (CoxI G6930A cybrid cells; 0.1 μM): ~47% | CoxI G6930A mtDNA percentage (CoxI G6930A cybrid cells; 0.25 μM): 72% | CoxI G6930A mtDNA heteroplasmic ratio (CoxI G6930A cybrid cells; 0.25 μM): 62% | viability of KSS cell line (KSS ΔmtDNA cells): neither concentration affected viability | KSS ΔmtDNA percentage (KSS cybrid cells; 0.1 μM): 19.6% | KSS ΔmtDNA percentage (KSS cybrid cells; 0.25 μM): 21.2% | increase in basal oxygen consumption (KSS heteroplasmic cells): ~2 fold | viability of CoxI G6930A cell line (CoxI G6930A cells [2]): neither concentration affected viability | tolerability [3]: well tolerated

CC(C)C[C@@H](C=O)NC(=O)[C@H](CC(C)C)NC(=O)[C@H](CC(C)C)NC(=O)OCc1ccccc1 [MG132, carbobenzoxy-Leu-Leu-leucinal] (Cbz-Leu-Leu-Leu-aldehyde)
inhibition of LONP1 protease (LONP1 protease): potent inhibitors

C=C1OC(=O)/C(=C\CCCCCCCCCCCCC)[C@@H]1O [Obtusilactone A]
inhibition of LONP1 protease (LONP1 protease): inhibitors of LONP1 protease

O=c1n(CCCN2CCN(c3cccc(Cl)c3)CC2)nc2ccccn12 [Trazadone]
heteroplasmy (ΔmtDNA) in KSS cells (KSS cybrid cells; shRNA lentivirus or multiple concentrations of drug, FIG. 11): improved heteroplasmy

(-)-sesamin
inhibition of LONP1 protease (LONP1 protease): inhibitors of LONP1 protease

Z-Leu-Leu-Leu-B(OH)2 [MG262]
inhibition of LONP1 protease (LONP1 protease): potent inhibitors

B1: LONP1 siRNA: Dharmacon L-003979-00-0005, siRNA pool comprising SEQ ID NO:1-4 against human LONP1 (nucleic acid)
chain 1: GGAAAUCGGCCUACAAGAU
chain 2: GCGCAUGUAUGACGUGACA
chain 3: CGAGAGUACUUCCGCUUCA
chain 4: GAAGAGACCAAUAUUCCUA
modifications: siRNA pool, further chemistry not given here
decrease of ΔmtDNAs (KSS cybrid cells; siRNA for 4 days, KSS cybrid line): 2.7 fold | heteroplasmy ratio (% KSS mtDNA) (KSS cybrid cells; siRNA for 4 days, from 56.9%): 27.6%
